# Laboratory results from ChEMBL document CHEMBL5375995, “Discovery and Mechanistic Study of Novel Mycobacterium tuberculosis ClpP1P2 Inhibitors” (J Med Chem, 2023).
# Activity calls are given as the source filed them. No cut-off for these calls is given here.
# How the values were obtained:
# [1] = test system: Mycobacterium tuberculosis; experiment: Antibacterial activity against Mycobacterium tuberculosis H37Rv assessed as bacterial growth inhibition incubated for 24 hrs by broth microdilution method; assay type: functional
# [2] = test system: Mycobacterium tuberculosis; experiment: Antibacterial activity against Mycobacterium tuberculosis H37Ra assessed as bacterial growth inhibition incubated for 24 hrs by broth microdilution method; assay type: functional
# [3] = test system: Mycolicibacterium smegmatis; experiment: Antibacterial activity against wild-type Mycobacterium smegmatis mc2 155 assessed as bacterial growth inhibition incubated for 2 days by Alamar blue staining based assay; assay type: functional; settings: mc2 155, 48 h, time 2 day
# Pseudomonas aeruginosa = experiment: Antibacterial activity against Pseudomonas aeruginosa assessed as bacterial growth inhibition incubated for 24 hrs by broth microdilution method; assay type: functional
# Staphylococcus aureus = experiment: Antibacterial activity against Staphylococcus aureus assessed as bacterial growth inhibition incubated for 24 hrs by broth microdilution method; assay type: functional
# Escherichia coli = experiment: Antibacterial activity against Escherichia coli assessed as bacterial growth inhibition incubated for 24 hrs by broth microdilution method; assay type: functional
# ClpP1P2 [4] = biological target: T1, ClpP1P2 (Mycobacterium tuberculosis (strain ATCC 25618 / H37Rv), UniProt P9WPC3+P9WPC5); experiment: Inhibition of N-terminal His6-SUMO-tagged Mtb ClpP1 (7 to 200 residues)/ClpP2 (13 to 214 residues) complex expressed in Escherichia coli BL21(DE3) using Z-Gly-Gly-Leu-AMC as substrate measured for 60 mins in presence of Bz-LL by fluorescence based assay
# [5] = biological target: T2, ClpP1P2 (Mycobacterium tuberculosis (strain ATCC 25618 / H37Rv)) (UniProt P9WPC5+P9WPC3); experiment: Inhibition of N-terminal His6-SUMO-tagged Mtb ClpP1 (7 to 200 residues)/ClpP2 (13 to 214 residues) complex expressed in Escherichia coli BL21(DE3) using Z-Gly-Gly-Leu-AMC as substrate at 10 uM incubated for 40 mins in presence of Bz-LL by fluorescence based assay
# ClpP1P2 [6] = biological target: T1, ClpP1P2; experiment: Inhibition of N-terminal His6-SUMO-tagged Mtb ClpP1 (7 to 200 residues)/ClpP2 (13 to 214 residues) complex expressed in Escherichia coli BL21(DE3) using FITC-casein as substrate measured for 1 hr in presence of Bz-LL/ATP by fluorescence based assay
# [7] = biological target: T2, ClpP1P2 (Mycobacterium tuberculosis (strain ATCC 25618 / H37Rv)); experiment: Binding affinity to ClpP1 in Mtb H37Ra lysate at 5 mM incubated for 4 hrs by affinity based capture method; assay type: subcellular
# [8] = biological target: ATP-dependent Clp protease ATP-binding subunit ClpC1 (Mycobacterium tuberculosis) (UniProt P9WPC9); experiment: Inhibition of N-terminal His6-tagged full-length Mtb ClpC1 ATPase activity expressed in Escherichia coli BL21(DE3) at 100 uM in presence of PK/LDH/ATP/NADH by spectrophotometry
# [9] = biological target: ATP-dependent Clp protease ATP-binding subunit ClpC1 (Mycobacterium tuberculosis) (UniProt P9WPC9); experiment: Inhibition of N-terminal His6-tagged full-length Mtb ClpC1 creatine kinase activity expressed in Escherichia coli BL21(DE3) using creatine phosphate as substrate at 100 uM preincubated for 10 mins followed by substrate addition measured after 10 mins in presence of ADP by Kinase-Glo assay; settings: time 20.0 min
# [10] = Selectivity index, ratio of IC50 for Mtb H37Rv ClpP complex using Z-Gly-Gly-Leu-AMC as substrate to IC50 for N-terminal His6-SUMO-tagged Mtb ClpP1 (7 to 200 residues)/ClpP2 (13 to 214 residues) complex expressed in Escherichia coli BL21(DE3)
# [11] = Inhibition of full-length human ClpP complex ([…]) expressed in Escherichia coli BL21(DE3) using Ac-WLA-AMC as substrate measured for 60 mins in presence of Bz-LL by fluorescence based assay
# [12] = Inhibition of full-length Escherichia coli ClpP complex/Escherichia coli ClpX delta N mutant (62 to 425 residues) expressed in Escherichia coli BL21(DE3) using FITC-casein as substrate measured for 1 hr in presence of Bz-LL/ATP by fluorescence based assay
# [13] = Inhibition of full-length Mtb H37Rv ClpP complex expressed in Escherichia coli BL21(DE3) using FITC-casein as substrate measured for 1 hr in presence of Bz-LL/ATP by fluorescence based assay; parameters: species or system Mycobacterium tuberculosis
# [14] = Selectivity index, ratio of IC50 for full-length Staphylococcus aureus ClpP complex expressed in Escherichia coli BL21(DE3) using Suc-LY-AMC as substrate to IC50 for N-terminal His6-SUMO-tagged Mtb ClpP1 (7 to 200 residues)/ClpP2 (13 to 214 residues) complex expressed in Escherichia coli BL21(DE3)
# [15] = Inhibition of full-length Pseudomonas aeruginosa ClpP1 expressed in Escherichia coli BL21(DE3) using Suc-LY-AMC as substrate measured for 60 mins in presence of Bz-LL by fluorescence based assay
# [16] = Inhibition of N-terminal His6-SUMO-tagged Mycobacterium smegmatis ClpP1 (3 to 200 residues)/P2 (17 to 218 residues) expressed in Escherichia coli BL21(DE3)/C1 using Z-Gly-Gly-Leu-AM as substrate measured for 60 mins in presence of Bz-LL by fluorescence based assay; parameters: species or system Mycolicibacterium smegmatis
# [17] = test system: Mycolicibacterium smegmatis; experiment: Antibacterial activity against Mycobacterium smegmatis mc2 155 harboring ClpC1 knockout assessed as bacterial growth inhibition incubated for 2 days by Alamar blue staining based assay; assay type: functional; settings: mc2 155, 48 h, time 2 day
# [18] = (§1) Selectivity index, ratio of IC50 for full-length human ClpP complex ([…]) expressed in Escherichia coli BL21(DE3) using FITC-casein as substrate to IC50 for N-terminal His6-SUMO-tagged Mtb ClpP1 (7 to 200 residues)/ClpP2 (13 to 214 residues) complex expressed in Escherichia coli BL21(DE3)
# [19] = Selectivity index, ratio of IC50 for full-length Pseudomonas aeruginosa ClpP1 expressed in Escherichia coli BL21(DE3) using Suc-LY-AMC as substrate to IC50 for N-terminal His6-SUMO-tagged Mtb ClpP1 (7 to 200 residues)/ClpP2 (13 to 214 residues) complex expressed in Escherichia coli BL21(DE3)
# [20] = as §1, with “Ac-WLA-AMC” for “FITC-casein”
# [21] = Inhibition of N-terminal His6-SUMO-tagged Mycobacterium smegmatis ClpP1 (3 to 200 residues)/P2 (17 to 218 residues) expressed in Escherichia coli BL21(DE3) using Z-Gly-Gly-Leu-AM as substrate measured for 60 mins in presence of Bz-LL by fluorescence based assay; parameters: species or system Mycolicibacterium smegmatis
# [22] = Inhibition of full-length Escherichia coli ClpP complex expressed in Escherichia coli BL21(DE3) using Suc-LY-AMC as substrate incubated for 60 mins in presence of Bz-LL by fluorescence based assay
# [23] = Inhibition of full-length Staphylococcus aureus ClpP complex/Escherichia coli ClpX delta N mutant (62 to 425 residues) expressed in Escherichia coli BL21(DE3) using FITC-casein as substrate measured for 1 hr in presence of Bz-LL/ATP by fluorescence based assay
# [24] = Inhibition of full-length Staphylococcus aureus ClpP complex expressed in Escherichia coli BL21(DE3) using Suc-LY-AMC as substrate measured for 60 mins in presence of Bz-LL by fluorescence based assay
# ClpP1P2 [25] = biological target: T1, ClpP1P2; experiment: Binding affinity to N-terminal His6-SUMO-tagged Mtb ClpP1 (7 to 200 residues)/ClpP2 (13 to 214 residues) complex expressed in Escherichia coli BL21(DE3) assessed as increase in thermal stability measured at 25 to 110 degreeC in presence of Bz-LL by DSF assay
# [26] = Inhibition of full-length human ClpP complex ([…]) expressed in Escherichia coli BL21(DE3) using FITC-casein as substrate measured for 1 hr in presence of Bz-LL/ONC212/ATP by fluorescence based assay
# [27] = Selectivity index, ratio of IC50 for full-length Escherichia coli ClpP complex expressed in Escherichia coli BL21(DE3) using Suc-LY-AMC as substrate to IC50 for N-terminal His6-SUMO-tagged Mtb ClpP1 (7 to 200 residues)/ClpP2 (13 to 214 residues) complex expressed in Escherichia coli BL21(DE3)
# [28] = Selectivity index, ratio of IC50 for full-length Mtb H37Rv ClpP complex expressed in Escherichia coli BL21(DE3) using FITC-casein as substrate to IC50 for N-terminal His6-SUMO-tagged Mtb ClpP1 (7 to 200 residues)/ClpP2 (13 to 214 residues) complex expressed in Escherichia coli BL21(DE3)
# [29] = test system: Mycolicibacterium smegmatis; experiment: Antibacterial activity against Mycobacterium smegmatis mc2 155 harboring ClpX knockout assessed as bacterial growth inhibition incubated for 2 days by Alamar blue staining based assay; assay type: functional; settings: mc2 155, 48 h, time 2 day
# [30] = biological target: T2, ClpP1P2 (Mycobacterium tuberculosis (strain ATCC 25618 / H37Rv)); experiment: Inhibition of wild-type Mtb ClpP1 expressed in Escherichia coli BL21(DE3)
# ATP-dependent Clp protease ATP-binding subunit ClpC1 (Mycobacterium tuberculosis), sequence (P9WPC9 whole entry, the tested form may be a part): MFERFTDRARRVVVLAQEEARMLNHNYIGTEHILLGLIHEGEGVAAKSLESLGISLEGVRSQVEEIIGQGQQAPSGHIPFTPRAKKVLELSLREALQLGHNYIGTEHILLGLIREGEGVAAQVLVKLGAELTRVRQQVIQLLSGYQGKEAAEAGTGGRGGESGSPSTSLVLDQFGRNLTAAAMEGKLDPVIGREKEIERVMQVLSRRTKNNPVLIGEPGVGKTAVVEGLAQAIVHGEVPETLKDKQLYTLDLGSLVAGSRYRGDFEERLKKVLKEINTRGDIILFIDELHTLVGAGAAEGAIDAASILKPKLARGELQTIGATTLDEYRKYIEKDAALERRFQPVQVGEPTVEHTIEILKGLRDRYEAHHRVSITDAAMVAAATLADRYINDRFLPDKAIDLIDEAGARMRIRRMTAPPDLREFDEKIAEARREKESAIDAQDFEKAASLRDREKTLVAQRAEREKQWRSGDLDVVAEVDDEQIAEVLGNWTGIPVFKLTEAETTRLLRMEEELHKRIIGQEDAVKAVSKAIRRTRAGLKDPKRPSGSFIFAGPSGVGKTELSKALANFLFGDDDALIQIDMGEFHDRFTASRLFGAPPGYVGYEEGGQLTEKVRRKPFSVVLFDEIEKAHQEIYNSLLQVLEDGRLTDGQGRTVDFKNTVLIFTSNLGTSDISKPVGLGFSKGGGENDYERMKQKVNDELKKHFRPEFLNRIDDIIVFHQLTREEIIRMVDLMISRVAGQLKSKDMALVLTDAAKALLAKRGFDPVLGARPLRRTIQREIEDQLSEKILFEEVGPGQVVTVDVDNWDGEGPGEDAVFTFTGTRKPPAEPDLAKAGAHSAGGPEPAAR
# T1 sequence (P9WPC5 whole entry, the tested form may be a part): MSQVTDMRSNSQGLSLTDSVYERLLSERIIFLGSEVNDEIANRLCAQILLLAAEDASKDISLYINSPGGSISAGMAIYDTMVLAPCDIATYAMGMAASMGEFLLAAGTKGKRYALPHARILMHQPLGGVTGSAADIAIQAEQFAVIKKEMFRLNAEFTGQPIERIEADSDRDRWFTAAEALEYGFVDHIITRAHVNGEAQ
# T1 sequence (P9WPC3 whole entry, the tested form may be a part): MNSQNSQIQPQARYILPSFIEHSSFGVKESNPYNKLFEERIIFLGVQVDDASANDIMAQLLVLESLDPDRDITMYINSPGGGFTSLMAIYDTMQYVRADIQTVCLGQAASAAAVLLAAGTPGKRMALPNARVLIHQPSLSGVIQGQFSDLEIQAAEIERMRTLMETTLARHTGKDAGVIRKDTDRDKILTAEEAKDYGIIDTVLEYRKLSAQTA
structure (smiles),measurement,setting,value
CC(=O)NC[C@H]1CN(c2ccc(N3CCOCC3)c(F)c2)C(=O)O1 [LINEZOLID],MIC,[1],0.2 µM
same,MIC,[2],0.2 µM
same,MIC,[3],5.9 µM
same,MIC,Pseudomonas aeruginosa,> 379 µM
same,MIC,Staphylococcus aureus,5.9 µM
same,MIC,Escherichia coli,> 379 µM
Oc1c(Cl)cc(Cl)c(Cl)c1Cc1c(O)c(Cl)cc(Cl)c1Cl [HEXACHLOROPHENE],IC50,ClpP1P2 [4],4.9 µM
same,inhibition,[5],Active
COc1cc2c(Nc3ccc4[nH]c(C)cc4c3F)ncnc2cc1OCCCN1CCCC1,MIC,[2],> 89 µM
same,IC50,ClpP1P2 [6],> 100 µM
same,IC50,ClpP1P2 [4],> 100 µM
COc1cc2c(OC)ncnc2cc1OCCCN1CCCC1,MIC,[2],> 126 µM
same,IC50,ClpP1P2 [6],> 100 µM
same,IC50,ClpP1P2 [4],> 100 µM
COc1cc2c(Oc3ccc4[nH]c(C)cc4c3F)ncnc2cc1OCCCN1CCC[C@@H](N)C1,MIC,[2],32 µM
same,Activity,[7],Active
same,IC50,ClpP1P2 [6],19.1 µM
same,IC50,ClpP1P2 [4],3.3 µM
COc1cc2c(Oc3ccc4[nH]c(C)cc4c3F)ncnc2cc1OCCCCl,MIC,[2],> 96.2 µM
same,IC50,ClpP1P2 [6],> 100 µM
same,IC50,ClpP1P2 [4],49.2 µM
Cc1cc2c(F)c(Oc3ncnn4cc(OC[C@@H](C)O)c(C)c34)ccc2[nH]1 [BRIVANIB],inhibition,[8],inactive
same,IC50,ClpP1P2 [6],24.2 µM
same,IC50,ClpP1P2 [4],6.9 µM
same,inhibition,[5],Active
same,inhibition,[9],inactive
CO[C@H]1/C=C/O[C@@]2(C)Oc3c(C)c(O)c4c(O)c(c(/C=N/N5CCN(C)CC5)c(O)c4c3C2=O)NC(=O)/C(C)=C\C=C\[C@H](C)[C@H](O)[C@@H](C)[C@@H](O)[C@@H](C)[C@H](OC(C)=O)[C@@H]1C [RIFAMPIN],MIC,Pseudomonas aeruginosa,38.9 µM
same,MIC,Escherichia coli,4.9 µM
COc1cc(C(=O)Nc2ccc3[nH]c(C)cc3c2F)ccc1OCCCN1CCCC1,MIC,[2],> 94 µM
same,IC50,ClpP1P2 [6],> 100 µM
same,IC50,ClpP1P2 [4],26.8 µM
COc1cc2c(Oc3ccc4[nH]c(C)cc4c3F)ncnc2cc1O,MIC,[2],> 118 µM
same,IC50,ClpP1P2 [6],> 100 µM
same,IC50,ClpP1P2 [4],45.3 µM
COc1cc2c(Oc3ccc4[nH]c(C)cc4c3F)ncnc2cc1OCCCN1CCCC1 [CEDIRANIB],Ratio IC50,[10],1
same,IC50,[11],37.5 µM
same,MIC,[1],28.2 µM
same,IC50,[12],358 µM
same,IC50,[13],24.2 µM
same,Ratio IC50,[14],> 170
same,IC50,[15],> 500 µM
same,IC50,[16],43.9 µM
same,MIC,[2],14.1 µM
same,inhibition,[8],inactive
same,MIC,[3],113 µM
same,MIC,[17],56.4 mg/L
same,Ratio IC50,[18],11.3
same,Ratio IC50,[19],> 170
same,MIC,Pseudomonas aeruginosa,> 226 µM
same,Ratio IC50,[20],13.3
same,IC50,[21],6.2 µM
same,IC50,ClpP1P2 [6],45.1 µM
same,IC50,[22],> 500 µM
same,IC50,[23],234 µM
same,MIC,Staphylococcus aureus,> 226 µM
same,IC50,[24],> 500 µM
same,IC50,ClpP1P2 [4],2.8 µM
same,EC50,ClpP1P2 [25],29 µM
same,inhibition,[5],Active
same,IC50,[26],273 µM
same,Ratio IC50,[27],> 170
same,MIC,Escherichia coli,> 226 µM
same,Ratio IC50,[28],14.8
same,inhibition,[9],inactive
same,MIC,[29],56.4 mg/L
same,inhibition,[30],inactive
COc1cc2c(Oc3ccc4cc[nH]c4c3)ncnc2cc1OCCCN1CCCC1,MIC,[2],> 95.6 µM
same,IC50,ClpP1P2 [6],> 100 µM
same,IC50,ClpP1P2 [4],> 100 µM
